pIC50: −log10 of the molar value. Converted amounts (≈) assume the structure as drawn. “And” between values parts separate entries of the source, which are not always exact repeats. Equal entries are not always repeated. Where two headings read alike, the source gives them in different places.
Key:
[1] = tested on: HEK293T; test: Cytotoxicity assay (MTT); assay type: cell-based, human; settings: for MTT data (raw readout): HEK293T; for pIC50: 24 h, MTT
Procedure, shortened: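 HEK293T cells, maintained at 37 °C and 7% CO2 in Dulbecco’s modified Eagle medium with GlutaMax, antibiotics and serum, were plated in clear 96-well plates in 100 µl medium containing 1% fetal bovine serum and left 24 h to attach. After 24 h compound exposure, MTT (0.40 mg ml^−1) was added for 2 h. Formazan was dissolved in 100 µl DMSO and absorbance measured at 570 nm. Background-corrected IC50 values came from variable-slope non-linear fits.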

[2] = tested on: HepG2; test: Cytotoxicity assay (MTT); assay type: cell-based, human; settings: for pIC50: MTT, 24 h
[3] = tested on: A. baumannii ATCC BAA747; test: MIC by broth microdilution; assay type: cell-based; settings: Acinetobacter baumannii, ATCCBAA747, read-out: MIC A. baumannii ATCC BAA747
Protocol: (§1) MIC was determined by broth microdilution. Single-colony cultures were grown to exponential phase (OD600 of 0.5) aerobically at 37 °C. In case of strains from the Keio collection, 50 µg ml^−1 kanamycin was supplemented to the media to ascertain a homogeneous population. The bacterial suspensions were diluted 100-fold in CAMHB and 50 µl was added to a twofold serial dilution series of test compounds (50 µl per well) in polypropylene 96-well microtitre plates to reach a volume of 100 µl. The plates were sealed with breathable membranes and incubated overnight at 37 °C with constant shaking (600 r.p.m.). The MIC was determined as the lowest concentration at which no visible bacterial growth was observed as compared with the inoculum controls from the median of a minimum of triplicates.

[4] = tested on: P. aeruginosa ATCC 27853; test: MIC by broth microdilution; assay type: cell-based; settings: Pseudomonas aeruginosa, ATCC27853, read-out: MIC P. aeruginosa ATCC 27853
Protocol: as §1

[5] = tested on: S. aureus ATCC 29213 / ATCC BAA1717; test: MIC by broth microdilution; assay type: cell-based; settings: Staphylococcus aureus
Protocol: as §1

[6] = tested on: E. coli W3110 gyrA S97L, S83L, D87N; test: MIC against CRISPR/Cas9 gyrA point mutants; assay type: cell-based, Escherichia coli; settings: Escherichia coli
Protocol: as §1
Mutants of the DNA gyrase subunit A encoding gene (gyrA) were constructed following the protocol for gene editing via the CRISPR–Cas9 system. Strains and plasmids used are listed in Supplementary Table 15, and primers used can be found in Supplementary Table 16. The following mutations were created: S97L in E. coli W3110. Two common mutations in the gyrA gene that give resistance to fluoroquinolone antibiotics were created in E. coli W3110, namely S83L and D87N. To create the gyrA (S97L) mutants, the construct psgRNA-gyrA-M5 was assembled as follows: The 20-nt spacer sequence was introduced by PCR on pTargetF using primers gyrA_P11 and gyrA_P12, the homology-directed repair (HDR) arms were amplified from E. coli W3110 genomic DNA by PCR using primer pairs gyrA_P05 and gyrA_P013, and gyrA_P08 and gyrA_P14. The three PCR fragments generated were cloned into the SpeI and BglII digested pTargetF via Gibson assembly. To avoid off-target effects of CRISPR, besides desired point mutation for gyrA (S97L), four other silent point mutations were also included in the HDR template. Consequently, the amino acid sequence of gyrA will remain the same in the generated mutant except for the desired mutation. Similarly, constructs psgRNA-gyrA-S83L and psgRNA-gyrA-D87N were created to introduce mutations S83L and D87N in gyrA, respectively. In psgRNA-gyrA-S83L, spacer sequence was introduced using primers gyrA_P12 and gyrA_P17, HDR template was amplified using primer pairs gyrA_P05 and gyrA_P18, and gyrA_P08 and gyrA_P19. In psgRNA-gyrA-D87N, spacer sequence was introduced using primers gyrA_P12 and gyrA_P20, HDR template was amplified using primer pairs gyrA_P05 and gyrA_P21, and gyrA_P08 and gyrA_P22. The verified constructs for gyrA engineering were transformed into E. coli W3110 carrying pCas9, and plated in LB containing kanamycin (50 µg ml^−1) for the selection of the pCas9 plasmid and spectinomycin (100 µg ml^−1) for the selection of psgRNA-gyrA-X. The plates were incubated at 30 °C. Plasmids were cured by growing the strains with 0.5 mM isopropylthiogalactoside with no antibiotics to lose first the psgRNA-gyrA plasmids. After losing the spectinomycin resistance, the strain was grown in LB with no antibiotics at 42 °C to lose the pCas plasmid. Colony PCR was performed on plasmid-free colonies using primers gyrA_P9 and gyrA_P10, and PCR products were sequenced to confirm the desired mutation

## O=S(=O)(NC[C@H]1CC[C@@H](c2ccc(-c3ccc(F)nc3)cc2)N1)c1cccc2cnccc12 [LEI-801]
[1]; 0.023 uM, experiment n = 1, technical triplicates, listed as LEI-801 (99)
  MTT data (raw readout): 1.090 and 1.041 and 1.057
[1]; 0.023 uM, experiment n = 2, technical triplicates, listed as LEI-801 (99)
  MTT data (raw readout): 0.858 and 0.977 and 0.938
[1]; 0.068 uM, experiment n = 1, technical triplicates, listed as LEI-801 (99)
  MTT data (raw readout): 1.154 and 1.082 and 1.072
[1]; 0.068 uM, experiment n = 2, technical triplicates, listed as LEI-801 (99)
  MTT data (raw readout): 1.027 and 1.034 and 1.015
[1]; 0.21 uM, experiment n = 1, technical triplicates, listed as LEI-801 (99)
  MTT data (raw readout): 1.127 and 1.121 and 1.094
[1]; 0.21 uM, experiment n = 2, technical triplicates, listed as LEI-801 (99)
  MTT data (raw readout): 0.913 and 0.892 and 0.944
[1]; 0.62 uM, experiment n = 1, technical triplicates, listed as LEI-801 (99)
  MTT data (raw readout): 1.141 and 1.092 and 0.930
[1]; 0.62 uM, experiment n = 2, technical triplicates, listed as LEI-801 (99)
  MTT data (raw readout): 1.083 and 0.946 and 1.064
[1]; 1.85 uM, experiment n = 1, technical triplicates, listed as LEI-801 (99)
  MTT data (raw readout): 1.167 and 1.005 and 0.915
[1]; 5.6 uM, experiment n = 1, technical triplicates, listed as LEI-801 (99)
  MTT data (raw readout): 0.937 and 1.019 and 1.040
[1]; 5.6 uM, experiment n = 2, technical triplicates, listed as LEI-801 (99)
  MTT data (raw readout): 1.075 and 0.764 and 0.931
[1]; 16.7 uM, experiment n = 1, technical triplicates, listed as LEI-801 (99)
  MTT data (raw readout): 0.838 and 0.818 and 0.874
[1]; 16.7 uM, experiment n = 2, technical triplicates, listed as LEI-801 (99)
  MTT data (raw readout): 0.745 and 0.746 and 0.735
[1]; 50 uM, experiment n = 1, technical triplicates, listed as LEI-801 (99)
  MTT data (raw readout): 0.494 and 0.473 and 0.487
[1]; 50 uM, experiment n = 2, technical triplicates, listed as LEI-801 (99)
  MTT data (raw readout): 0.506 and 0.491 and 0.495
[1]; Homo sapiens, HEK-293T
  pIC50: 4.29
[1]; listed as LEI-801 (99)
  pIC50: < 4.30
[2]; HepG2, 0.023 uM, experiment n = 1, technical triplicates, listed as LEI-801 (99)
  MTT data (raw readout): 0.358 and 0.291 and 0.289
[2]; HepG2, 0.023 uM, experiment n = 2, technical triplicates, listed as LEI-801 (99)
  MTT data (raw readout): 0.296 and 0.284 and 0.274
[2]; HepG2, 0.068 uM, experiment n = 1, technical triplicates, listed as LEI-801 (99)
  MTT data (raw readout): 0.356 and 0.307 and 0.313
[2]; HepG2, 0.068 uM, experiment n = 2, technical triplicates, listed as LEI-801 (99)
  MTT data (raw readout): 0.301 and 0.287 and 0.260
[2]; HepG2, 0.21 uM, experiment n = 1, technical triplicates, listed as LEI-801 (99)
  MTT data (raw readout): 0.330 and 0.315 and 0.323
[2]; HepG2, 0.21 uM, experiment n = 2, technical triplicates, listed as LEI-801 (99)
  MTT data (raw readout): 0.350 and 0.289 and 0.265
[2]; HepG2, 0.62 uM, experiment n = 1, technical triplicates, listed as LEI-801 (99)
  MTT data (raw readout): 0.417 and 0.319 and 0.320
[2]; HepG2, 0.62 uM, experiment n = 2, technical triplicates, listed as LEI-801 (99)
  MTT data (raw readout): 0.301 and 0.282 and 0.253
[2]; HepG2, 1.85 uM, experiment n = 1, technical triplicates, listed as LEI-801 (99)
  MTT data (raw readout): 0.361 and 0.335 and 0.354
[2]; HepG2, 1.85 uM, experiment n = 2, technical triplicates, listed as LEI-801 (99)
  MTT data (raw readout): 0.263 and 0.269 and 0.244
[2]; HepG2, 5.6 uM, experiment n = 1, technical triplicates, listed as LEI-801 (99)
  MTT data (raw readout): 0.370 and 0.351 and 0.360
[2]; HepG2, 5.6 uM, experiment n = 2, technical triplicates, listed as LEI-801 (99)
  MTT data (raw readout): 0.293 and 0.267 and 0.296
[2]; HepG2, 16.7 uM, experiment n = 1, technical triplicates, listed as LEI-801 (99)
  MTT data (raw readout): 0.376 and 0.357 and 0.431
[2]; HepG2, 16.7 uM, experiment n = 2, technical triplicates, listed as LEI-801 (99)
  MTT data (raw readout): 0.300 and 0.252 and 0.259
[2]; HepG2, 50 uM, experiment n = 1, technical triplicates, listed as LEI-801 (99)
  MTT data (raw readout): 0.327 and 0.318 and 0.307
[2]; HepG2, 50 uM, experiment n = 2, technical triplicates, listed as LEI-801 (99)
  MTT data (raw readout): 0.232 and 0.220 and 0.225
[2]; Homo sapiens, HepG2, 24 h
  pIC50: < 4.00
[2]; listed as LEI-801 (99)
  pIC50: < 4.30

## O=C(O)c1cn(C2CC2)c2cc(N3CCNCC3)c(F)cc2c1=O [CIP, ciprofloxacin]
[3]
  MIC: 0.755 µM (≈ 0.25 µg/mL)
[4]
  MIC: 0.377 µM (≈ 0.125 µg/mL)
[5]; read-out: MIC S. aureus ATCC 29213
  MIC: 0.755 µM (≈ 0.25 µg/mL)
[5]; read-out: MIC S. aureus ATCC BAA1717
  MIC: > 0.755 µM
[6]; E. coli W3110 gyrA D87N (FQ-resistant 2)
  MIC: > 1.5 µM
[6]; E. coli W3110 gyrA S83L (FQ-resistant 1)
  MIC: > 1.5 µM
[6]; E. coli W3110 gyrA S97L (LEI-800-resistant)
  MIC: 0.024 µM (≈ 0.00795 µg/mL)

Source: article PMC11374673, “Discovery of isoquinoline sulfonamides as allosteric gyrase inhibitors with activity against fluoroquinolone-resistant bacteria” (Nature Chemistry, 2024)
